Here are results for ten compounds from ChEMBL document CHEMBL4837243, “Discovery of TDI-10229: A Potent and Orally Bioavailable Inhibitor of Soluble Adenylyl Cyclase (sAC, ADCY10)” (ACS Med Chem Lett, 2021).

Each structure is given as a SMILES string. In brackets after ≈: the same amount, converted by molar mass.

Data set [1] in a line: Permeability of the compound in PRISMA HT buffer at pH 7.4 at 10 umol/L incubated for 3 hrs bt PAMPA based LC/MS/MS analysis. The class given is ADME. As to conditions: dose 10 µmol/L, read-out: permeability.
The nature of data set [2]: Kinetic solubility of compound by UV- absorbance analysis.
Data set [3] can be described thus: Octanol-water partition coefficient, logD of the compound at pH 7.4 by HPLC analysis. It is filed as physicochemical.
The target of data set [4] is Adenylate cyclase type 10 (Homo sapiens, UniProt Q96PN6).
Adenylate cyclase type 10, sequence (Q96PN6 whole entry): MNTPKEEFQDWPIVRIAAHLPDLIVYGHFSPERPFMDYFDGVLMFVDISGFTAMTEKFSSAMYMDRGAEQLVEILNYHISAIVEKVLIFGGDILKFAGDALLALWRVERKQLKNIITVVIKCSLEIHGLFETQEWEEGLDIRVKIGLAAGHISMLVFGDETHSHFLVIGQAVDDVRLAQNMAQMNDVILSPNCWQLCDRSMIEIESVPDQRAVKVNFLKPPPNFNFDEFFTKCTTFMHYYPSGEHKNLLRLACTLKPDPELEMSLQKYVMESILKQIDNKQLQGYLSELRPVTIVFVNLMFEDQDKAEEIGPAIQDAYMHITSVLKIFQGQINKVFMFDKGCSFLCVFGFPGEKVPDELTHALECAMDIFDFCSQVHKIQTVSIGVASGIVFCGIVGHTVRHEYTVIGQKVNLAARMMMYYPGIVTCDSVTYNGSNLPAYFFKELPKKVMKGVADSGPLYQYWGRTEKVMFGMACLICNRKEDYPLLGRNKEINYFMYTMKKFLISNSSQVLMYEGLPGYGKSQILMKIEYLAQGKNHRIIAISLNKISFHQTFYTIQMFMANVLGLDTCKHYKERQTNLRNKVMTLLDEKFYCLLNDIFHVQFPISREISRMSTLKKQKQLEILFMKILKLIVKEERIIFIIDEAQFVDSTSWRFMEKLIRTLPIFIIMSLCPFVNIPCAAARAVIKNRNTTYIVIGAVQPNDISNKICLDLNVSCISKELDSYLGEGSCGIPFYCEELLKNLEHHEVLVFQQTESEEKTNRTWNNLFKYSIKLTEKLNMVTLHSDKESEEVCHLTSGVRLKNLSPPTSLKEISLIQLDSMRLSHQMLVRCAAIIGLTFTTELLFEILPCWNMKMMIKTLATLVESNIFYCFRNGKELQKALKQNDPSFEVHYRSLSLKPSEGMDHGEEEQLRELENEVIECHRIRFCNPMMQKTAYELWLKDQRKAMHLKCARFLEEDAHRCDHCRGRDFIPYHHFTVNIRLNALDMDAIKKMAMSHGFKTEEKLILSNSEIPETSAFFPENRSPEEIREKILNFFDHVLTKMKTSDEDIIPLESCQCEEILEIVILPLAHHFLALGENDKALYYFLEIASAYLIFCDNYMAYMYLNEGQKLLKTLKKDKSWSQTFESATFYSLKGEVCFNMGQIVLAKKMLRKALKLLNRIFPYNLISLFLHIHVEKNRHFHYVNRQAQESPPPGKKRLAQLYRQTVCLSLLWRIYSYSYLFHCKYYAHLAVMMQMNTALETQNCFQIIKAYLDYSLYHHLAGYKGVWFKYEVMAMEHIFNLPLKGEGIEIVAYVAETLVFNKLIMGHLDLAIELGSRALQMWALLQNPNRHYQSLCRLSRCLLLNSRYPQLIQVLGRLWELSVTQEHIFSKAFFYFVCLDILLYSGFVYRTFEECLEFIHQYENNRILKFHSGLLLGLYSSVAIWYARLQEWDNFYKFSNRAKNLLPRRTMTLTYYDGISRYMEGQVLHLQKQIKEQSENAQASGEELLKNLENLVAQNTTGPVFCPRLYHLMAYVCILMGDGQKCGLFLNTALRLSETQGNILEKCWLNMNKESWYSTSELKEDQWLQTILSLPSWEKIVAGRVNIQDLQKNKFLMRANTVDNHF
Description: Inhibition of human soluble adenylyl cyclase assessed as reduction in cAMP levels in the presence of alpha-32p labeled ATP by biochemical assay
Data set [5] can be described thus: Clearance in mouse liver microsomes. The class given is ADME, Microsome. Conditions: read-out: CLH. A general note: Microsomes from liver hold many membrane-bound enzymes, among them those of drug oxidation.
A short description of data set [6]: Oral bioavailability in mouse. It is filed as ADME, organism-based. As to conditions: in vivo.
A short description of data set [7]: Clearance in human liver microsomes. Conditions: read-out: CLH. It is filed as ADME, Microsome.
Data set [8] can be described thus: Cmax in CD1 mouse at 20 mg/kg, po measured up to 24 hrs. It is filed as ADME, organism-based. Also noted: route oral, dose 20 mg/kg, time <=24. Conditions: in vivo.
Data set [9] in a line: Mean residence time in CD1 mouse at 20 mg/kg, po measured up to 24 hrs. The class given is ADME, organism-based. As to conditions: in vivo.
Data set [10] is described as follows: AUC in CD1 mouse at 20 mg/kg, po measured up to 24 hrs. As to conditions: in vivo. The class given is ADME, organism-based. Also noted: route oral, dose 20 mg/kg, time <=24.
A short description of data set [11]: Bioavailability in mouse. As to conditions: in vivo, dose 20 mg/kg. It is filed as ADME, organism-based.
Data set [12] is described as follows: Mean residence time in CD1 mouse at 20 mg/kg, ip measured up to 24 hrs. It is filed as ADME, organism-based. As to conditions: in vivo.
A short description of data set [13]: AUC in CD1 mouse at 20 mg/kg, ip measured up to 24 hrs. It is filed as ADME, organism-based. The arrangement: route intraperitoneal, dose 20 mg/kg, time <=24. As to conditions: in vivo.
A short description of data set [14]: Cmax in CD1 mouse at 20 mg/kg, ip measured up to 24 hrs. It is filed as ADME, organism-based. The arrangement: route intraperitoneal, dose 20 mg/kg, time <=24. As to conditions: in vivo.

For the compound `Cc1c(Cc2cccs2)c(-c2cc(Cl)nc(N)n2)nn1C`, the Papp at 3 h, 10 µM in data set [1] came to 28 ×10⁻⁶ cm/s. Further, the solubility (kinetic) in [2] worked out at 0.38 µg/mL (≈ 1.19 µM). The same compound gave a logD in [3] of 2.7.
Consider `CNC(=O)c1c(Cc2ccccc2)c(-c2cc(Cl)nc(N)n2)nn1C`, for which the IC50 in data set [4] is above 10 µM.
`Cc1cc(-c2nn(C)cc2Cc2cccs2)nc(N)n1` displayed an IC50 in [4] above 1 µM.
Turning to `CN(C)Cc1c(Cc2ccccc2)c(-c2cc(Cl)nc(N)n2)nn1C`, the IC50 in data set [4] was above 10 µM.
Same read-out and setting: to `Cc1ccc(Cc2cn(C)nc2-c2cc(Cl)nc(N)n2)s1` belongs above 1 µM.
As to `Cn1cc(Cc2cccc(F)c2)c(-c2cc(Cl)nc(N)n2)n1`, the Papp at 3 h, 10 µM in [1] turned out to be 25.7 ×10⁻⁶ cm/s. Moreover, in [2], the solubility (kinetic) worked out at 7.5 µg/mL (≈ 23.6 µM). This compound also came in with a logD in data set [3] of 2.8.
Take `Cc1c(Cc2ccnn2C)c(-c2cc(Cl)nc(N)n2)nn1C`: the IC50 in data set [4] is above 10 µM.
For `Nc1nc(Cl)cc(N(Cc2cccs2)C2CC2)n1`, the microsomal CLint was above 768 µL/min/mg in data set [5] and 360 µL/min/mg in [7]. The bioavailability in data set [6] is below 5%.
On to `Cc1c(Cc2ccccc2)c(-c2cc(Cl)nc(N)n2)nn1C`, for which the results for the Cmax in data set [8] and in data set [14] were 15.5 µM and 45 µM, respectively. Further, the Papp at 3 h, 10 µM in data set [1] is 27.4 ×10⁻⁶ cm/s. The solubility (kinetic) in data set [2] turned out to be 1.3 µg/mL (≈ 4.14 µM). For the same compound, the MRT in [9] amounted to 3.95 h; in data set [12], 2.82 h. The AUC at 24 h amounted to 94 µM·h in [10] and 72 µM·h in data set [13]. Moreover, the bioavailability in data set [11] came to 59%. In data set [3], this compound yielded a logD of 2.9.
For the compound `Cn1cc(Cc2cccs2)c(-c2cc(Cl)nc(N)n2)n1`, in data set [1], the Papp at 3 h, 10 µM stood at 25.8 ×10⁻⁶ cm/s. For the same compound, the solubility (kinetic) in data set [2] is 6.3 µg/mL (≈ 20.6 µM). The compound further returned a logD in data set [3] of 2.5.

The term solubility (kinetic) denotes solubility judged after dilution from a stock solution rather than from solid. The logD is the decadic logarithm of the distribution of all forms, ionised or not, between an organic phase and buffer at a given pH. Read a high logD as higher lipophilicity. Usually IC50 stands for the concentration that gives 50% inhibition. As a reminder, the bioavailability is dose-corrected exposure relative to a reference, in per cent. Higher therefore signals good availability. In general, Cmax refers to the peak of the concentration-time curve. The term MRT denotes a mean duration of stay, worked out from the concentration-time curve. In general, AUC refers to concentration integrated over time.
